Data published in ChEMBL document CHEMBL3243981, “Antileukemic activity of ungeremine and related compounds. Preparation of analogues of ungeremine by a practical photochemical reaction” (J Med Chem, 1978).
Activity calls are given as the source filed them. No cut-off for these calls is given here.

Legend:
[1] = test system: P388; assay: Antileukemic activity against mouse P388 cells allografted in mouse at 100 mg/kg administered daily as single dose relative to control; format: functional
[2] = test system: P388; assay: Antileukemic activity against mouse P388 cells allografted in mouse assessed as host survival at 25 mg/kg administered daily as single dose; format: functional, organism-based; set-up: dose 25 mg/kg
[3] = test system: P388; assay: Antileukemic activity against mouse P388 cells allografted in mouse at 50 mg/kg administered daily as single dose relative to control; format: functional
[4] = test system: P388; assay: Antileukemic activity against mouse P388 cells allografted in mouse at 25 mg/kg administered daily as single dose relative to control; format: functional
[5] = test system: Mus musculus; assay: Toxicity in mouse allografted with mouse P388 cells assessed as change in body weight at 100 mg/kg administered daily as single dose; format: organism-based; set-up: dose 100 mg/kg; conditions: in vivo
[6] = test system: Mus musculus; assay: Toxicity in mouse allografted with mouse P388 cells assessed as change in body weight at 50 mg/kg administered daily as single dose; format: organism-based; set-up: dose 50 mg/kg; conditions: in vivo
[7] = test system: P388; assay: Antileukemic activity against mouse P388 cells allografted in mouse assessed as host survival at 50 mg/kg administered daily as single dose; format: functional, organism-based; set-up: dose 50 mg/kg
[8] = test system: Mus musculus; assay: Toxicity in mouse allografted with mouse P388 cells assessed as change in body weight at 25 mg/kg administered daily as single dose; format: organism-based; set-up: dose 25 mg/kg; conditions: in vivo
[9] = test system: P388; assay: Antileukemic activity against mouse P388 cells allografted in mouse at 6.25 mg/kg administered daily as single dose relative to control; format: functional
[10] = test system: Mus musculus; assay: Toxicity in mouse allografted with mouse P388 cells assessed as change in body weight at 12.5 mg/kg administered daily as single dose; format: organism-based; set-up: dose 12.5 mg/kg; conditions: in vivo
[11] = test system: P388; assay: Antileukemic activity against mouse P388 cells allografted in mouse at 12.5 mg/kg administered daily as single dose relative to control; format: functional
[12] = test system: Mus musculus; assay: Toxicity in mouse allografted with mouse P388 cells assessed as change in body weight at 6.25 mg/kg administered daily as single dose; format: organism-based; set-up: dose 6.25 mg/kg; conditions: in vivo
[13] = test system: P388; assay: Antileukemic activity against mouse P388 cells allografted in mouse assessed as host survival at 12.5 mg/kg administered daily as single dose; format: functional, organism-based; set-up: dose 12.5 mg/kg
[14] = test system: P388; assay: Antileukemic activity against mouse P388 cells allografted in mouse assessed as host survival at 6.25 mg/kg administered daily as single dose; format: functional, organism-based; set-up: dose 6.25 mg/kg
[15] = test system: P388; assay: Antileukemic activity against mouse P388 cells allografted in mouse at 3.13 mg/kg administered daily as single dose relative to control; format: functional
[16] = test system: Mus musculus; assay: Toxicity in mouse allografted with mouse P388 cells assessed as change in body weight at 3.13 mg/kg administered daily as single dose; format: organism-based; set-up: dose 3.13 mg/kg; conditions: in vivo
[17] = test system: P388; assay: Antileukemic activity against mouse P388 cells allografted in mouse assessed as host survival at 3.13 mg/kg administered daily as single dose; format: functional, organism-based; set-up: dose 3.13 mg/kg
[18] = test system: P388; assay: Antileukemic activity against mouse P388 cells allografted in mouse at 18.8 mg/kg administered daily as single dose relative to control; format: functional
[19] = test system: P388; assay: Antileukemic activity against mouse P388 cells allografted in mouse assessed as host survival at 18.8 mg/kg administered daily as single dose; format: functional, organism-based; set-up: dose 18.8 mg/kg
[20] = test system: Mus musculus; assay: Toxicity in mouse allografted with mouse P388 cells assessed as change in body weight at 18.8 mg/kg administered daily as single dose; format: organism-based; set-up: dose 18.8 mg/kg; conditions: in vivo

SMILES | T/C [1] [%] | Survival [2] | T/C [3] [%] | T/C [4] [%] | Activity [5] [g] | Activity [6] [g] | Survival [7] | Activity [8] [g] | T/C [9] [%] | Activity [10] [g] | T/C [11] [%] | Activity [12] [g] | Survival [13] | Survival [14] | T/C [15] [%] | Activity [16] [g] | Survival [17] | T/C [18] [%] | Survival [19] | Activity [20] [g]
COc1cc2c[n+]3c4c(cccc4c2cc1OC)CC3.[Cl-] | 114 | Active | 118 | 108 | -5.1 | -1.7 | Active | -0.9 |  |  |  |  |  |  |  |  |  |  |  | 
[Cl-].c1cc2c3c(c1)c1cc4c(cc1c[n+]3CC2)OCO4 [ANHYDROLYCORINIUM CHLORIDE] |  | Active |  | 153 |  |  |  | -2.9 | 127 | -2.1 | 142 | -1.5 | Active | Active |  |  |  |  |  | 
COc1cc2c[n+]3c4c(cccc4c2cc1OC)CCC3.[Cl-] |  | Active | 110 | 108 |  | -3.2 | Active | -0.1 |  | -1.4 | 109 |  | Active |  |  |  |  |  |  | 
[O-]c1cc2c3c(c1)c1cc4c(cc1c[n+]3CC2)OCO4 [UNGEREMINE] |  | Active | 152 | 148 |  | -3.9 | Active | -2.1 | 136 | -1.9 | 148 | -0.7 | Active | Active | 133 | -0.7 | Active |  |  | 
Oc1cc2c3c(c1)c1cc4c(cc1c[n+]3CC2)OCO4.[Cl-] |  |  |  | 164 |  |  |  | -3.9 | 151 | -2.4 | 155 | -1.7 | Active | Active | 133 | -0.7 | Active |  |  | 
C[n+]1cc2cc3c(cc2c2ccccc21)OCO3.[Cl-] |  | Active |  | 151 |  |  |  | -2.5 | 129 | -1 | 135 | -0.9 | Active | Active | 126 | -0.3 | Active | 144 | Active | -1.3
COS(=O)(=O)[O-].C[n+]1cc2ccccc2c2ccccc21 |  | Active | 113 | 125 |  | -6.4 | Active | -3.2 | 117 | -2.2 | 120 | -1 | Active | Active | 108 | -0.8 | Active |  |  | 
[Cl-].c1cc2c3c(c1)c1cc4c(cc1c[n+]3CCC2)OCO4 |  |  |  | 120 |  |  | inactive | -3.3 | 126 | -1.9 | 129 | -1.7 | Active | Active | 110 | -0.2 | Active | 132 | Active | -2.4
COc1cc2c[n+](C)c3ccccc3c2cc1OC.[Cl-] | 123 | Active | 130 | 121 | -3.8 | -1.6 | Active | -1 |  | -1.1 | 113 |  | Active |  |  |  |  |  |  | 
